Measurements taken from a melting point compilation (Tetko et al.; mined from patent text by program, amines drawn as free bases though some values may be those of a salt).

Structure (SMILES)	melting point [°C]
CCCCc1nc2ccccn2c(=O)c1-c1ccc(N[C@@H]2CCN(C)C2)cc1	64 to 66
CCON1CC1C(N)=O (stereo unspecified)	50 to 54
COc1cc(Nc2nccc(Nc3cccc(CCO)c3)n2)cc(OC)c1OC	72
CC(=Cc1cc([N+](=O)[O-])ccc1Cl)C(=O)O	228 to 230
CCOC(=O)c1c(Cl)c2cccnc2[nH]c1=O	172
O=C(O)COc1cc(F)ccc1C(=O)NCc1nc2c(F)c(F)cc(F)c2s1	172 to 174
Nc1nc(=O)n(CC2CCCO2)cc1F (stereo unspecified)	168 to 170
CCCCc1nn2ccccc2c1C(=O)c1ccc(C#N)cc1	116
c1ccc2c(c1)ccc1nn[nH]c12	245 to 247
CC(=O)SCC(Cc1ccccc1)C(=O)Nc1cc(C)cc(C(=O)O)c1 (stereo unspecified)	160 to 161
CC(C)(C)OC(=O)Nc1ccc(C#Cc2ccc(F)cc2)cc1NC(=O)CC(=O)c1cccc(-n2cncn2)c1	131 to 139
CC1CC(=O)NN=C1c1ccc2c(c1)N=CS2=O (stereo unspecified)	317 to 319
COc1c(C2CCN(CCCCNC(=O)c3sc(-c4ccc(C#N)cc4)nc3CO)CC2)ccc2c1CCCC2	212
COC(=O)c1ccccc1C1=NC(C)(C(C)C)C(=O)N1O (stereo unspecified)	146 to 150
COC(=O)/C(O)=C1\CCc2cc(OC)ccc2C1=O	77.3 to 77.8
O=C(C1CCCCCC1)N1c2ccccc2CCC1CN1CCN(c2cccc3[nH]ccc23)CC1 (stereo unspecified)	167 to 173
Cc1oncc1C(=O)c1ccc(Cl)cc1	65 to 66
O=P(c1ccccc1)(c1ccccc1)c1ccc(F)cc1F	111 to 112
CCCc1cc2c(=O)[nH]c(C(=O)OCC)nc2s1	169 to 170
CC(=O)OCC1OC(n2cc(C3=C(c4c[nH]c5ccccc45)C(=O)N(C)C3=O)c3cccnc32)C(OC(C)=O)C(OC(C)=O)C1OC(C)=O (stereo unspecified)	119 to 121

Structure (SMILES)	melting point [°C]
CCS(=O)(=O)c1cc2c(c(C(=O)O)c1)OCCO2	217 to 218
Cc1nn(-c2cc(I)c(Cl)cc2F)c(=O)n1C(F)F	125 to 127
COC(=O)c1ccc2c(c1)CN(c1c(F)cc3c(=O)c(C(=O)O)cn4c3c1OCC4C)C2 (stereo unspecified)	257 to 262
CNC(=O)c1cc(C(=O)NOCC2CC2)c(Nc2ccc(I)cc2C)c(F)c1F	198 to 202
Cc1c(NCCCN2CCN(c3ccccc3O)CC2)n(C)c(=O)n(C)c1=O	203 to 205
CC(C)(CO)CCCCC(CCCCC(C)(C)CO)(C(=O)O)C(=O)O	178 to 180
Cc1ccc(-c2cccc(/C=C/C(=O)Nc3ccc(CN4CCN(Cc5ccc6c(c5)OCO6)CC4)cc3)c2)cc1	204 to 207
O=C(O)c1cn2c3c(c(F)c(F)cc3c1=O)OCC2	> 300
Clc1c(I)c(Cl)c(I)c(Cl)c1I	> 300
NC(=O)NCCCCCC1CCSS1 (stereo unspecified)	74 to 78
COC(=O)[C@H]1[C@@H]2CC[C@@](NC(=O)OC(C)(C)C)(C(=O)OC)[C@@H]21	193 to 194
COc1cc(COc2nn(-c3ccccc3)cc2C=O)ccc1OCc1cn(-c2ccccn2)nc1C	179 to 180
CC(=O)OC1CC2C3CCC(C(C)CCCC(C)C)C3(C)CCC2C2(C)CC(F)C(=O)CC12 (stereo unspecified)	153 to 156
CCOC(=O)C(=O)Nc1cc([N+](=O)[O-])c2ccccc2c1NC(=O)C(=O)OCC	183 to 184
O=C(O)CCCN1CCN(C(=O)c2cc(C(F)(F)F)cc(C(F)(F)F)c2)[C@H](Cc2c[nH]c3ccccc23)C1	112 to 120
CCOc1ccc(C2=NC(=O)C(C)(C(C)C)N2)nc1 (stereo unspecified)	143 to 145
CC(C)(C)C1=NN(c2ccc(C(=O)O)cc2)C(c2ccccc2Cl)C1 (stereo unspecified)	229
COc1cc(COc2cc(C#N)n(-c3ccccc3)n2)ccc1OCc1nc(-c2ccccc2)oc1C	120 to 121
CCC(Cl)(CC)C(CO)N=O (stereo unspecified)	130
CCCOc1ccc(-c2ccc3c(c2)C=C(C(=O)OC)CCS3(=O)=O)cc1	153 to 155

Structure (SMILES)	melting point [°C]
COc1ccc2cc([C@H](C)C(=O)OCCSCCO)ccc2c1	58 to 61
CC(=O)Oc1c(Cc2ccccc2)cc(C(C)=O)c2ccccc12	118 to 120
C[C@@H]1C(=O)C[C@H]2C[C@@H]1OO[C@@]2(C)/C=C\c1ccc(F)cc1	84
Cc1c(NC(=O)c2cc3c(s2)C(O)CCC3)cccc1-c1cn(C)c(=O)c(Nc2ccc(C3C(=O)N(C)CCN3C)cc2)n1 (stereo unspecified)	165 to 166
CCc1c(OC)nc2nc(C(N)=S)cn2c1C	248 to 259
Cc1cc(NN)nc(-c2ccncc2)n1	150 to 152
COc1cc(OCc2cccc([N+](=O)[O-])c2)ccc1C(C)=O	111 to 114
COc1ccc(-c2ccncc2)c(C)n1	85 to 90
CCCN(CCC)CCCOc1ccc(-c2noc(-c3ccccc3)n2)cc1	55 to 57
CC(C)c1ccc2c(c1)OC1(O)c3cccc(O)c3C(=O)C21O (stereo unspecified)	205 to 207
CN1CCN(Cc2nnc(S)n2Cc2cccc(F)c2)CC1	180
Cn1c(=O)cc(-c2nc(-c3ccccc3)cs2)c2cc(C(=O)c3ccc(Cl)cc3)ccc21	216
O=C(O)c1ccc(S(=O)(=O)Cl)cc1O	173
OC(c1cc(F)cc(F)c1)c1cc(F)cc(F)c1	62
COC(=O)CCCc1cc2nc(Cl)ccc2n1S(=O)(=O)c1cc(F)cc(F)c1	90
CS(=O)(=O)Nc1cc2occ([N+](=O)[O-])c(=O)c2cc1Oc1ccccc1	225 to 227
c1ccc(-c2cc(OCC3CO3)no2)cc1 (stereo unspecified)	98 to 99
CC(=O)OCC1CCn2c(c(C3=C(c4cn(C)c5ccc(Br)cc45)C(=O)OC3=O)c3ccccc32)C1 (stereo unspecified)	215 to 220
CCc1ccc(Nc2c(C#N)cnc3cc(OC)c(OC)cc23)cc1	248 to 250

Further lines, results first:

melting point [°C]	Structure (SMILES)
201 to 202	O=C(NC(c1ccccc1)c1ccccc1)c1c[nH]cn1
157 to 158	OC1CSC(Sc2cc(C(F)(F)F)cc(C(F)(F)F)c2)C(O)C1O (stereo unspecified)
112 to 114	CC[C@H](C)[C@H](Nc1nc(OC)ns1)C(=O)N1CCC[C@H]1C(=O)O
116 to 118	CCOC(=O)c1cc2oc3c(n2n1)CCOC3
220 to 226	NC1=NC(c2cccc(-c3cccnc3F)c2)C2=NC(c3ccc(OC(F)F)cc3)C3(CCC3)CN12 (stereo unspecified)
265 to 267	CCOC(=O)N1CCn2c(nc(-c3ccncn3)cc2=O)C(NC(=O)c2ccc(-c3cnn(C)c3)cc2)C1 (stereo unspecified)
163	Cn1nc(-c2cc(C(=O)O)c(Cl)cc2F)c(C=O)c1C(F)(F)F
160 to 162	Cc1ccc(Cc2cnc(NCCCCc3ncc(I)cc3C)[nH]c2=O)cn1
145	CC(=O)c1ccc(S(=O)(=O)NCc2ccccc2-c2ccccc2C(=O)NCCc2ccccc2)cc1
> 270	N#CC1=C(c2cc3ccccc3o2)Nc2n[nH]cc2C1c1cccc2nonc12 (stereo unspecified)
200	O=c1[nH]c2ccc(CCN3CCN(c4cc(O)cc5cccnc45)CC3)cc2o1
279 to 280	N=C(O)c1cc(C(O)=NCCO)c(C(=O)O)cc1C(=O)O
174 to 176	CC(=O)c1ccc(Nc2c3ccccc3nc3occ(Cl)c23)cc1
340 to 342	O=c1[nH]ccc2c1c(O)nc1cc(Cl)ccc12
191 to 193	CN1CCN(c2nn(-c3ccc(O)cc3)c3ccccc23)CC1
226 to 227	COc1cc(C)c2c(c1C)C(SC)C(=O)N2 (stereo unspecified)
158	CC(C)Oc1ccc(-c2cncc(OC3SCC(O)C(O)C3O)c2)cc1 (stereo unspecified)
148 to 149	COc1ccc2nc3ccc(OC)cc3c(Nc3cccc(COC(=O)NC(C)C)c3)c2c1
85 to 86	CCNC(=O)n1nc(Oc2ncc(C(F)(F)F)cc2Cl)cc1C
214 to 217	O=C(O)c1cc([N+](=O)[O-])ccc1Nc1ccc(CCc2ccc(Cl)c(Cl)c2)cc1
150	O=C(CN1CC2C(=O)N(c3cc(Cl)cc(Cl)c3)C(=O)C2C1)c1ccc(Br)cc1 (stereo unspecified)

melting point [°C]	Structure (SMILES)
40 to 41.5	CC(C)(C)Oc1ccc(I)cc1
156 to 157	CC(C)Oc1ccc(CCCCOc2cc(CCC(=O)O)n(C)n2)c(Oc2ncc(C(F)(F)F)cc2Cl)c1
210	O=C(Cc1ccccc1)N1C[C@@H]2SCCC(c3ccccc3)(c3ccccc3)[C@@H]2C1 (racemic)
153 to 154	CCc1cc(O)cc2c3c([nH]c12)C(CC)(CC(=O)OC)OCC3 (stereo unspecified)
195	CN(c1ccc(O)cc1)c1nc2ccc(Br)cc2o1
176 to 178	O=C(Nc1ccc2ccc(-c3ccc(Cl)c(Cl)c3)nc2n1)c1cccc(Br)c1
94 to 96	NC1(C(=O)NOCc2ccccc2)CCCC1
132 to 134	CC(C)N(C[C@H](O)[C@H](Cc1ccccc1)NC(=O)OCc1ccccc1)NC(=O)C(C)(C)C
165 to 166	CCn1cc(-c2c(-c3ccc(F)cc3)nn3ccncc23)ccc1=O
95 to 96	CC(C)COC(=O)Nc1ccc(Br)cc1
244 to 246	COc1ccc(-c2cc3nccnc3[nH]2)cc1
195 to 198	COc1cccc(/C=C/c2cccc(C(=O)O)c2)c1
260	O=C(O)CC1CCC(N2CCC(CNc3ccncc3)CC2)CC1 (stereo unspecified)
92 to 94	CCn1c(Cl)c(C=NO)c(=O)n(CC)c1=O
174 to 176	Cc1cc2c(-c3ccccc3)c(NC(=O)N(C)Cc3ccccc3)n(C)c(=O)c2cc1C
146 to 148	COc1ccccc1-c1nn(C(C)(C)C(=O)N(C)C)cc1C
221 to 222	Oc1c(Br)cc(-c2c3ccccc3c(I)c3sc4ccccc4c23)cc1Br
58 to 59	N[C@@H](CC1CCCCC1)[C@@H](O)[C@@H]1CCCS1
70 to 71	O=S(CCc1ccccc1)CCc1ccccc1
214 to 232	N#CC(C#N)=C1C=C(c2ccccc2)S(=O)(=O)C(c2cccs2)=C1
115 to 117	Oc1ccc(Br)cc1C(O)c1ccc2ccccc2c1 (stereo unspecified)
